Measurements taken from article PMC5634784, “Clearance of beta-amyloid is facilitated by apolipoprotein E and circulating high-density lipoproteins in bioengineered human vessels” (eLife, 2017).

Tests used:
Format in all cases: cell-based, human
[1] = test system: endothelial barrier of bioengineered vessels; assay: Endothelium integrity: Evans blue extravasation; settings: 0.5% in circulation loop 10 min, PBS wash 20 min
Method: Evans blue (Sigma-Aldrich) was injected at a final concentration of 0.5% in the circulation loop of the bioreactor for 10 min followed by continuous PBS washing for 20 min. Vessels were cut open longitudinally and en face preparations were analysed macroscopically with photo documentation. Restriction of paracellular transport was determined by measuring FITC dextran extravasation to the tissue chamber as described ([Gaillard et al., 2001]). […] After 1 hr tissue media was collected, fluorescent was read at RT on an EnSpire 2300 Multilabel Plate Reader (492Ex/518Em) and the permeability coefficient (Papp) was calculated using the following equation: Papp=(dQ/dt)*(1/A*C0*60) where dQ/dt is the amount of FITC-dextran transported per minute (ng/min), A is the surface area of the tissue (cm [[Attems and Jellinger, 2014]]), C0 is the initial concentration of FITC-Dextran (ng/ml) and 60 is the conversion from minutes to seconds.

[2] = test system: NO synthase; assay: NO measurement: conversion of L-3H-arginine to L-3H-citruline in tripartite vessels
Method: NO synthesis was measured as described ([Robert et al., 2013a]) using a commercial NOS activity assay kit (Caymenchemical, Ann Arbor, MI). Briefly, a 2–3 mm ring of vascular tissue was mechanically ground in 150 μl of ice cold homogenized buffer (25 mM Tris-Cl, pH7.4, 1 mM EDTA and 1 mM EGTA) and centrifuged 15 min at 4°C at 10,000 g. The supernatant was aliquoted and incubated in reaction buffer containing 25 mM Tris-Cl, pH7.4, 0.25 mM EDTA, 0.6 mM CaCl2, 1 mM NADP, 200 nM calmodulin, 3 µM tetrahydrobiopterin, 1 µM flavin adenine dinucleotide, 1 µM flavin adenine monoucleotide and 0.2 µCi L-^3H-arginine; PerkinElmer, Waltham, MA) in the presence of 10 nM acetylcholine (Ach), 0.2 mg/ml HDL or 1 mM L-NG-nitroarginine methyl ester (L-NAME). After 60 min at 37°C, the reaction was stopped by adding 400 μl of stop buffer ([…] HEPES, 5 mM EDTA, pH 5.5). The solution was loaded onto an ion exchange column equilibrated with stop buffer to separate L-^3H-citruline from L-^3H-arginine. Scintillation mix (Ultimate Gold, PerkinElmer) was added to the supernatant and counted using LS6500 β-counter (Beckman Coulter, Brea, CA). The percent citrulline formed was calculated as follows: % conversion = (cpm reaction-cpm background)/cpm total *100.

[3] = test system: bioengineered tripartite vessels; assay: Aβ transport across tripartite bioengineered cerebral vessels (ELISA); settings: for transport of fibrils compared to monomers: tripartite vessels, pre-aggregated (37°C, 48 hr) or monomeric Aβ 1 μM anteluminal
Method: Bioengineered constructs were fabricated using a dynamic, semi-pulsatile flow bioreactor system. Tubular biodegradable scaffolds (length 1.5 cm and inner diameter 2 mm) were produced as described ([Robert et al., 2013a]; [Robert et al., 2017]) with minor modifications. Briefly, non-woven polyglycolic acid (PGA, Biomedical Structure, Warwick, RI) meshes (thickness: 1 mm and density: 70 mg/cc) were dip-coated with polycaprolactone (PCL) and polylactate (PLA) by dipping PGA mesh in a solution of 1.75% (w/w) PCL/PLA/tetrahydrofuran (THF) solution (Sigma-Aldrich, St. Louis, MO), shaped into tubes using heat, and externally coated with a 10% PCL/THF (w/w) solution. Scaffolds were sterilized by immersion in 70% ethanol for 30 min followed by three PBS washes and then immersion in advanced DMEM supplemented with 10% FBS for at least 12 hr. UCMFB were seeded at density of 2−3 × 10^6 cells/cm^2 on the inner surface of the scaffold using fibrin (fibrinogen 10 mg clottable protein/ml PBS and thrombin 100–10 mU/ml PBS) as a cell carrier that was added directly to the scaffold, then incubated under static conditions for a minimum of 3 days before exposure to dynamic flow. The flow of nutrient medium (Advanced DMEM supplemented with 10% FBS, 1% L-glutamine and 0.05% Pen/Strep) was directed through the lumen of the bioreactor circulation loop to mimic blood flow for a minimum of one week. Vascular intermediates were then seeded with HUVEC (1 × 10^6 cells/cm^2) and cultivated first in static conditions for a minimum of 5 days in EGM−2 supplemented as above. For bipartite vessels, after the static phase, vascular grafts were placed back in the bioreactor for 14 additional days with increasing medium flow to a final rate of 10 ml/min by the 10th day). For tripartite vessels, after the static phase after HUVEC addition, primary astrocytes were seeded (1 × 10^6 cells/cm^2) using fibrin as a cell carrier as above on the antelumen side of the tissue. After 5 min at RT, grafts were placed under flow conditions with EGM-2 supplemented as above in the circulation chamber and complete astrocyte medium in the tissue chamber for 14 additional days with increasing medium flow to 10 ml/min by the 10th day.
The HFIP was removed by evaporation overnight and stocks were stored at −20°C. On the day of the assay, soluble monomers were prepared by reconstituting the peptide film in DMSO to 5 mM, diluted further to 100 µM in RPMI without FBS. 100 μl of Aβ solution was injected in the tissue chamber containing 900 μl of DMEM (Gibco) without FBS to the desired concentration using a syringe under flow conditions. […] For luminal recovery, 100 μl circulating medium was collected at the indicated time.
All experiments were conducted under an approved clinical protocol (UBC Clinical Ethics Research Board H14-03357). Upon receipt of written informed consent, 100 ml of fasted blood was collected from normolipidemic healthy donors into vacutainer tubes containing EDTA. Plasma HDL (1.063–1.21 g/ml) was isolated by sequential potassium bromide gradient ultracentrifugation as described ([Robert et al., 2013b]). […] Total protein concentration was assessed using the BCA assay (Thermofisher Scientific). Recombinant apoE2 and apoE4 were commercially purchased and solubilized following the manufacture’s instructions (ABCAM, apoE2 ab55210, apoE3 ab123764 and apoE4 ab50243). […] ApoE concentrations were measured using ELISA as previously described ([Fan et al., 2016]). […]

[4] = test system: bioengineered bipartite vessels; assay: Aβ transport from anteluminal tissue chamber to luminal circulation across bipartite vessels (ELISA); settings: 1 μM monomers anteluminal, luminal medium sampled over 4 hr
Method: Bioengineered constructs were fabricated using a dynamic, semi-pulsatile flow bioreactor system. Tubular biodegradable scaffolds (length 1.5 cm and inner diameter 2 mm) were produced as described ([Robert et al., 2013a]; [Robert et al., 2017]) with minor modifications. Briefly, non-woven polyglycolic acid (PGA, Biomedical Structure, Warwick, RI) meshes (thickness: 1 mm and density: 70 mg/cc) were dip-coated with polycaprolactone (PCL) and polylactate (PLA) by dipping PGA mesh in a solution of 1.75% (w/w) PCL/PLA/tetrahydrofuran (THF) solution (Sigma-Aldrich, St. Louis, MO), shaped into tubes using heat, and externally coated with a 10% PCL/THF (w/w) solution. Scaffolds were sterilized by immersion in 70% ethanol for 30 min followed by three PBS washes and then immersion in advanced DMEM supplemented with 10% FBS for at least 12 hr. UCMFB were seeded at density of 2−3 × 10^6 cells/cm^2 on the inner surface of the scaffold using fibrin (fibrinogen 10 mg clottable protein/ml PBS and thrombin 100–10 mU/ml PBS) as a cell carrier that was added directly to the scaffold, then incubated under static conditions for a minimum of 3 days before exposure to dynamic flow. The flow of nutrient medium (Advanced DMEM supplemented with 10% FBS, 1% L-glutamine and 0.05% Pen/Strep) was directed through the lumen of the bioreactor circulation loop to mimic blood flow for a minimum of one week. […]

[5] = test system: bioengineered bipartite vessels; assay: Aβ fibrillization in bioengineered vessels (Thioflavin-S staining, Thioflavin-T quantification)
[6] = test system: apoE secretion by astrocytes; assay: Native apoE secretion by astrocytes in tripartite vessels (ELISA); settings: astrocytes APOE3/E3, GW3965 1 μM circulated through lumen 72 hr
Method: All experiments were conducted under an approved clinical protocol (UBC Clinical Ethics Research Board H14-03357). Upon receipt of written informed consent, 100 ml of fasted blood was collected from normolipidemic healthy donors into vacutainer tubes containing EDTA. Plasma HDL (1.063-1.21 g/ml) was isolated by sequential potassium bromide gradient ultracentrifugation as described ([Robert et al., 2013b]). The purity of the HDL preparations was verified by sodium dodecyl sulfate-polyacrylamide gel electrophoresis (SDS-PAGE) followed by Coomassie blue staining to ensure no LDL or albumin contamination (not shown). Total protein concentration was assessed using the BCA assay (Thermofisher Scientific). Recombinant apoE2 and apoE4 were commercially purchased and solubilized following the manufacture's instructions (ABCAM, apoE2 ab55210, apoE3 ab123764 and apoE4 ab50243). […] ApoE concentrations were measured using ELISA as previously described ([Fan et al., 2016]). Briefly, ELISA plates were coated overnight with anti-human apoE mAB […] antibody (MabTech, Cincinnati, OH, RRID: AB_1925746) at 1.55 μg/mL in PBS at 4°C, washed two times with PBST (0.05% Tween 20 in PBS), and blocked with 0.1% Blocker A (MesoScale Discovery, Rockville, MA) in PBST. […] Fluorescence was read after 15 min at RT on an EnSpire 2300 Multilabel Plate Reader (325Ex/420Em).

[7] = test system: bioengineered tripartite vessels; assay: Aβ accumulation in tripartite bioengineered cerebral vessels (ELISA); settings: GW3965 0.8 μM 72 hr, HDL 200 μg/ml luminal
Method: Bioengineered constructs were fabricated using a dynamic, semi-pulsatile flow bioreactor system. Tubular biodegradable scaffolds (length 1.5 cm and inner diameter 2 mm) were produced as described ([Robert et al., 2013a]; [Robert et al., 2017]) with minor modifications. Briefly, non-woven polyglycolic acid (PGA, Biomedical Structure, Warwick, RI) meshes (thickness: 1 mm and density: 70 mg/cc) were dip-coated with polycaprolactone (PCL) and polylactate (PLA) by dipping PGA mesh in a solution of 1.75% (w/w) PCL/PLA/tetrahydrofuran (THF) solution (Sigma-Aldrich, St. Louis, MO), shaped into tubes using heat, and externally coated with a 10% PCL/THF (w/w) solution. Scaffolds were sterilized by immersion in 70% ethanol for 30 min followed by three PBS washes and then immersion in advanced DMEM supplemented with 10% FBS for at least 12 hr. […]
All experiments were conducted under an approved clinical protocol (UBC Clinical Ethics Research Board H14-03357). […] Total protein concentration was assessed using the BCA assay (Thermofisher Scientific). […] ApoE concentrations were measured using ELISA as previously described ([Fan et al., 2016]). […]

## Cc1cc(-c2ccc(/N=N/c3ccc4c(S(=O)(=O)O)cc(S(=O)(=O)O)c(N)c4c3O)c(C)c2)ccc1/N=N/c1ccc2c(S(=O)(=O)O)cc(S(=O)(=O)O)c(N)c2c1O [Evans blue]
[1]; tissue prepared without EC
  Evans blue penetration into tissue without EC: penetrated into tissue prepared without EC
[1]; vessels seeded with EC
  Evans blue penetration into vessels with endothelium: excluded

## COC(=O)[C@@H](N)CCCNC(N)=N[N+](=O)[O-] [L-NAME, L-NG-nitroarginine methyl ester]
[2]; 1 mM L-NAME with Ach or HDL stimulation, 60 min
  NO production in the presence of NO synthase inhibitor: the conversion was blocked

## Aβ42 fibrils: Aβ42 incubated at 37°C for 48 hr after reconstitution in RPMI
[3]; over 4 hr
  transport of fibrils compared to monomers: significantly slower transport

## CC(=O)OCC[N+](C)(C)C [acetylcholine]
[2]; 10 nM acetylcholine or 200 μg/ml HDL, 60 min at 37°C
  NO production: conversion of L-3H-arginine to L-3H-citruline: significant increase

## Aβ42: Recombinant Aβ42 peptide (California Peptide Research), soluble monomers
[4]
  Aβ transport into circulating medium, bioengineered vessels versus scaffold-only controls: transported at a slower rate
[5]; 1 μM monomers anteluminal, RIPA lysate, 20 μM Thioflavin-T, ex 440 nm / em 490 nm
  beta-sheet formation in tissue lysates (Thioflavin-T): increasing signal over time
[5]; monomers 0, 0.1, 1.0 and 10 μM anteluminal, 48 hr, Thioflavin-S staining
  Aβ fibrillization in the bioengineered vessels (Thioflavin-S): dose-dependent fibrillization
[3]; 1 μM monomers anteluminal, over 4 hr
  Aβ recovery into circulation medium, tripartite compared to bipartite vessels: increased

## O=C(O)Cc1cccc(OCCCN(Cc2cccc(C(F)(F)F)c2Cl)CC(c2ccccc2)c2ccccc2)c1 [GW3965]
[6]
  secretion of native apoE into medium: significantly stimulated the secretion of native apoE
[3]; Aβ40 1 μM anteluminal, GW3965 0.8 μM 72 hr, HDL 200 μg/ml luminal
  effect on Aβ40 transport through tripartite vessels over 4 hr: neither GW3965 alone nor HDL alone modified the rate
[3]; Aβ42 1 μM anteluminal, GW3965 0.8 μM 72 hr, HDL 200 μg/ml luminal
  effect on Aβ42 transport through tripartite vessels over 4 hr: neither GW3965 alone nor HDL alone modified the rate
[7]; Aβ40 1 μM anteluminal
  effect on accumulation of Aβ40 within tripartite tissues after 24 hr: neither GW3965, HDL, nor both GW3965 and HDL affected accumulation
[7]; Aβ42 1 μM anteluminal
  effect on accumulation of Aβ42 within tripartite tissues after 24 hr: neither GW3965, HDL, nor both GW3965 and HDL affected accumulation

## Aβ40 fibrils: Aβ40 incubated at 37°C for 48 hr after reconstitution in RPMI
[3]; over 4 hr
  transport of fibrils compared to monomers: significantly slower transport
